Test results as given in article PMC2904697, “A Screen for Kinetochore-Microtubule Interaction Inhibitors Identifies Novel Antitubulin Compounds” (PLoS ONE, 2010).
Several values for one entry are separate records, joined by “and”; a condition that tells them apart may be missing. Equal values may be shown once.

Key:
[1] = molecular target: recombinant human Ndc80 kinetochore complex binding to taxol-stabilized microtubules; test: Ndc80^488 complex-MT binding assay (fluorescence microscopy / TIRF); details: for IC50: total internal reflection fluorescence microscopy, Ndc80^488 complex 0.1 µmol/l, taxol-stabilized MTs; for Fold more active than compound B in the Ndc80^488 complex-MT binding assay: versus compound B
Text: To screen compound libraries for molecules inhibiting binding of the outer kinetochore Ndc80 complex (Ndc80, Nuf2, Spc24, Spc25) to MTs, we used a fluorescence microscopy-based in vitro approach (Fig. 1). First, the recombinant human Ndc80 construct, used to crystallize the complex, was produced in Escherichia coli using a bicistronic plasmid from which the Nuf2-Spc24 and Ndc80-Spc25 peptides were generated (Fig. 1A). Following their intracellular assembly, the complex was purified from E. coli cell extract based on the GST tag at the N-terminus of Nuf2. The complex was released in solution with PreScission Protease (its recognition sequence was introduced between the GST tag and the NUF2 coding sequence) and was separated from contaminants by gel filtration chromatography (Fig. 1A). The high degree of purity of the preparation was confirmed by SDS-PAGE analysis and coomassie staining, which identified only both peptides (Fig. 1B). Next, the Ndc80 complex was fluorescently labeled with the Alexa Fluor 488 C5-maleimide (next named the Ndc80^488 complex) and was separated from unreacted fluorophore by gel filtration chromatography. The final preparation was highly pure as evidenced by gel filtration analysis and detection at 519 nm (emission maximum of the Alexa Fluor 488 dye) and at 280 nm (intrinsic protein fluorescence) (Fig. 1B). Next, the Ndc80^488 complex (0.1 µmol/l) was incubated with 10,200 compounds (comprising the Chembridge DIVERset and a compound collection from the Univ. Rome) at a starting concentration of 50 µmol/l. Binding (or lack thereof) of the complex to rhodamine-labeled taxol-stabilized MTs (0.1 µmol/l) was scored by wide-field fluorescence microscopy (Fig. 1C; images in Fig. 2A). […] Total internal reflection fluorescence microscopy was used to establish the IC50 value of the compound, which was measured to be ∼20 µmol/l (Fig. 2C).
Recombinant human Ndc80 complex (Ndc80^Bonsai complex) was produced in Escherichia coli using a bicistronic expression plasmid (Fig. 1A, [12]). Following transcription from the TAC promoter/operator by induction with 0.4 mmol/l IPTG (20°C, 15 h), GST-Nuf2-Spc24 and Ndc80-Spc25 polypeptides were generated, which dimerized intracellulary into the GST-Ndc80 complex. The complex was isolated from E. coli cell extract following incubation with glutathione beads. The complex was released from the beads with PreScission Protease (GE Healthcare Life Sciences) and contaminants were removed by gel filtration chromatography (Superdex 200, GE Healthcare Life Sciences). On average 4 mg of Ndc80 complex were obtained from 1 liter of cell culture. Next, 1 mg Ndc80 complex was labeled with 0.1 mg Alexa Fluor 488 C5-maleimide fluorophore (Invitrogen) at a 1.5-2 stoichiometry. The fluorescent complex (Ndc80^488 complex) was separated from unreacted fluorophore by gel filtration chromatography (Fig. 1B) and was then used to screen for compounds inhibiting Ndc80^488 complex-MT binding (Fig. 1C). The Ndc80^488 complex is fully functional as it is recruited to and acts at kinetochores when injected into prometaphase HeLa cells.
MTs were polymerized (30 min, 37°C) from a 1∶10 mixture of rhodamine-labeled:unlabeled bovine brain αβ-tubulin (Cytoskeleton) in BRB-80 buffer (80 mmol/l PIPES pH 6.8, 1 mmol/l MgCl2, 1 mmol/l EGTA) and were then stabilized with 20 µmol/l taxol. The Ndc80^488 complex (0.1 µmol/l) was incubated with 100 µmol/l compound (30 min, 24°C) in 96-well polypropylene plates (Eppendorf). The 10,000 compound DIVERset library (Chembridge) and 200 compounds from the Department of Medicinal Chemistry and Technologies, University of Rome La Sapienza were used in the screen. Next, the MTs (100 nmol/l) were added to the compound-Ndc80^488 complex solution in a 1∶1 v/v ratio. After incubation (10 min, 24°C), the reaction mixtures were transferred to 96-well glass-bottom plates (Greiner Bio-one). […]

[2] = test system: αβ-tubulin; test: Tubulin polymerization tracked turbidimetrically at 350 nm; assay type: biochemical; details: turbidimetric; versus compound B
Procedure: To quantify the antitubulin activity of compound B, we added 1–50 µmol/l compound B to 10 µmol/l αβ-tubulin. […] For this purpose, MTs were assembled from 10 µmol/l αβ-tubulin; 5 min into the reaction compound B was added in concentrations up to 200 µmol/l. MT depolymerization was tracked as a decrease in turbidity at 350 nm (Fig. 5B).
Polymerization of 10 µmol/l αβ-tubulin in BRB-80 buffer was monitored turbidimetrically at 350 nm for 15 min in a temperature-controlled spectrophotometer (37°C; SpectraMax Plus^384, Molecular Devices). To probe the effect of a compound on MT stability the molecule was added 5 min after initiation of tubulin assembly. The decrease in protein turbidity (350 nm) resulting from MT depolymerization was followed for 15 min at 37°C [13]. Quantitative comparisons of drug effects on tubulin assembly were also examined in 0.8 M glutamate with a 15 min drug-tubulin preincubation prior to the addition of GTP [14]. Tubulin assembly was monitored for 20 min at 30°C in Beckman DU7400/7500 spectrophotometers, and the compound concentration inhibiting tubulin assembly by 50% was determined.

[3] = test system: colchicine site in αβ-tubulin; test: [3H]colchicine competition (DEAE-cellulose filter method); assay type: binding; details: [3H]colchicine 5 µmol/l, tubulin 1 µmol/l
Text: Agents that inhibit tubulin polymerization and destabilize MTs include the colchicinoids, combretastatins, benzimidazole carbamates, vinca alkaloids, and maytansinoids. These drugs act primarily at β-tubulin in the αβ-heterodimer, albeit at different sites. Colchicinoids, combretastatins and benzimidazole carbamates (e.g. nocodazole) localize to the colchicine site near the C-terminus of β-tubulin at the αβ-tubulin intradimer interface, [16], whereas vinca alkaloids and maytansinoids localize to the N-terminal GTPase domain of β-tubulin [17], [18]. […] Its binding affinity, however, was ∼3-fold lower than that of nocodazole (compare values at 5 µmol/l and 20 µmol/l, Fig. 5C).
Tubulin binding of [^3H]colchicine was measured by the DEAE-cellulose filter method. Reaction mixtures contained 1.0 µmol/l αβ-tubulin, 1.0 mol/l monosodium glutamate, 0.1 mol/l glucose-1-phosphate, 1.0 mmol/l MgCl2, 1.0 mmol/l GTP, 0.5 mg/ml BSA, 5% DMSO, 5 µmol/l [^3H]colchicine, and inhibitor at 1, 5, 20 or 50 µmol/l. These reaction conditions strongly stabilize the colchicine-binding activity of tubulin [21].

[4] = test system: HeLa cells; test: Mitotic delay and cell death in G1/S-synchronized HeLa cells (time-lapse videomicroscopy); assay type: cell-based, human; details: HeLa released from G1/S; 500 nmol/l
Procedure: At compound B concentrations of 5 µmol/l and above, the cells arrested robustly in metaphase (∼15 h) and then underwent cell death, as diagnosed by cell shrinkage (Fig. 3B). […] This phenotype is indicative of chromatids being unable to bind to spindle MTs and/or of spindle defects, as observed with nocodazole (Fig. 3C). […] Because drugs that inhibit tubulin polymerization also destabilize MTs, we next probed whether compound B destabilized metaphase spindles. We arrested HeLa cells in metaphase using 10 µmol/l of proteosome inhibitor MG132. […] Thus, compound B prevents tubulin assembly and destabilizes spindle MTs in cells.
Next, we determined whether the elevated antitubulin activities of compounds A6, A8, D7 and E7 (versus compound B), and the discrepancies in activity between the compounds themselves were reflected in their effects on mitosis. G1/S synchronized HeLa cells were released into growth medium containing 100 or 500 nmol/l of these compounds or compound B; the duration of the mitotic delay by the compounds and the percentage of cells undergoing subsequent cell death were scored. […] The four compounds triggered mitotic delays to an extent that directly reflects their activities in vitro (compare Fig. 6E and Fig. 6, panels B to D). […] Of note, each of our compounds acted in cells with an efficacy exceeding those measured in vitro (compare Fig. 6E and Fig. 5). This discrepancy may be due to increased compound:tubulin ratios in cells. Alternatively, the compounds may be modified intracellularly, resulting in enhanced activity. Because compound B and the four second-generation compounds are 6-furan-2-yl-3-methyl-4-oxo-4,5,6,7-tetrahydro-1H-indole-2-carboxylic acid derivatives, we have named these tubulin inhibitors “furan-metoticas”.

[5] = test system: taxol-stabilized MTs; test: Compound-based depolymerization of taxol-stabilized MTs in vitro; assay type: biochemical, bovine; details: compound 50 µmol/l; taxol (20 µmol/l)-stabilized MTs
Procedure: To test this hypothesis, we treated HeLa cells with 0.5 µmol/l taxol, thereby arresting them in metaphase with stabilized spindles. […] To quantify the taxol-mediated inhibition of MT disassembly by compound B, we measured in vitro the depolymerization of taxol (20 µmol/l)-stabilized MTs following incubation with 50 µmol/l compound B (the screen condition). Nocodazole and maytansine (both at 50 µmol/l) were included as controls. At 50 µmol/l, compound B depolymerized 3% of the taxol-stabilized MT population, while nocodazole and maytansine depolymerized 11% and 31% of the taxol-treated MTs, respectively (Fig. 4B). […] This finding further supports our hypothesis that the interaction of compound B with the stabilized MTs must have prevented the Ndc80^488 complex from establishing contact with the MT surface.
MTs were polymerized (30 min, 37°C) from a 1∶10 mixture of rhodamine-labeled:unlabeled bovine brain αβ-tubulin (Cytoskeleton) in BRB-80 buffer (80 mmol/l PIPES pH 6.8, 1 mmol/l MgCl2, 1 mmol/l EGTA) and were then stabilized with 20 µmol/l taxol. The Ndc80^488 complex (0.1 µmol/l) was incubated with 100 µmol/l compound (30 min, 24°C) in 96-well polypropylene plates (Eppendorf). The 10,000 compound DIVERset library (Chembridge) and 200 compounds from the Department of Medicinal Chemistry and Technologies, University of Rome La Sapienza were used in the screen. Next, the MTs (100 nmol/l) were added to the compound-Ndc80^488 complex solution in a 1∶1 v/v ratio. After incubation (10 min, 24°C), the reaction mixtures were transferred to 96-well glass-bottom plates (Greiner Bio-one). Each well was imaged at 519 nm and 590 nm with an IX81 Olympus inverted wide-field microscope (Olympus). Total internal reflection fluorescence imaging was performed with an Olympus IX71 inverted wide-field microscope (Olympus). ImageJ was used for image processing (NIH, USA).
Taxol-stabilized MTs were prepared and diluted as described for the Ndc80^488 binding experiments. Varying compound concentrations in 10 µl of DMSO were added to 490 µl of diluted MTs at 37°C. Following incubation (30 min, 37°C), 450 µl of each mixture was centrifuged (10 min; 30,000 rpm; 37°C) in a Beckman Optima TLX centrifuge (TLA120.1 rotor). Pellets were dissolved in 25 µl of 8 mol/l urea, and the protein content of 20 µl was compared with that from pellets formed without compound.

Row | IC50 [1] | Fold more active than compound B in the Ndc80^488 complex-MT binding assay [1] | Fold lower IC50 for inhibiting tubulin assembly than that of compound B [2] | Fold more active than compound B as inhibitors of [3H]colchicine-tubulin binding [3] | Compound | Effect on mitosis at 500 nmol/l [4] | Taxol-stabilized MT population depolymerized [5]
1 | ~1000 nM and 1000 nM | ~20 fold | 2.3 fold | 3 fold | Cc1c(C(=O)OC2CCCCC2)[nH]c2c1C(=O)C[C@@H](c1ccco1)C2 [A6] | – | –
2 | ~1000 nM and 1000 nM | ~20 fold | 3.0 fold | 3 fold | C/C=C/COC(=O)c1[nH]c2c(c1C)C(=O)C[C@@H](c1ccco1)C2 [D7] | robust mitotic block, followed by cell death | –
3 | ~1000 nM and 1000 nM | ~20 fold | 4.0 fold | 3 fold | C=CCOC(=O)c1[nH]c2c(c1C)C(=O)C[C@@H](c1ccco1)C2 [E7] | robust mitotic block, followed by cell death | –
4 | – | – | – | – | COc1cc2cc(c1Cl)N(C)C(=O)C[C@H](OC(=O)[C@H](C)N(C)C(C)=O)[C@]1(C)O[C@H]1[C@H](C)[C@@H]1C[C@@](O)(NC(=O)O1)[C@H](OC)/C=C/C=C(\C)C2 [maytansine, reference compound] | – | 31%
